# Values of other authors in patent US20240173376A1, “TREM-1 INHIBITORS FOR THE TREATMENT OF MARFAN SYNDROME” (INSERM (INSTITUT NATIONAL DE LA SANTÉ ET DE LA RECHERCHE …, priority 2021, published 2024).
# How the values were obtained:
# AT1R [1] = target: T1, AT1R (Homo sapiens, UniProt P30556)
# T1 construct: host or cells: patients in randomized clinical studies
# T1 sequence (P30556 1-359): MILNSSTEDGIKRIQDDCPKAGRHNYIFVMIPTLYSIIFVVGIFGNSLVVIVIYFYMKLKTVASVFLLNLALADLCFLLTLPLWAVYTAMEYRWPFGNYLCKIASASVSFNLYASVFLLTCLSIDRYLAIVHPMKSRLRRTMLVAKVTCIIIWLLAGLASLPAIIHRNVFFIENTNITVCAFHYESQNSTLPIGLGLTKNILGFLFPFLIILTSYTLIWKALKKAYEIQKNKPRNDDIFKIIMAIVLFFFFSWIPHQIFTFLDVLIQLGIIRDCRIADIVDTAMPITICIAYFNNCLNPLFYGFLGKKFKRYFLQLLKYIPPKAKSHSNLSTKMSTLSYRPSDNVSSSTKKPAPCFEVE
# AT1R [2] = conditions: animal model of Marfan's disease (Hibashi et al, Science, 2006)
# [3] = Marfan patients (Shores et al 1994; Ladouceur et al 2007)
smiles,measurement,setting,value
CCCCc1nc(Cl)c(CO)n1Cc1ccc(-c2ccccc2-c2nn[nH]n2)cc1 [Losartan],benefit in humans,"AT1R [1]; randomized, double-blind, multicenter study (Milleron et al, Eur Heart J)",no benefit
same,progression of aortic dilatation in humans,"AT1R [1]; study with comparable methodology, N=192 (Mullen et al. Lancet 2019)",a benefit
same,arterial wall architecture and aortic dilatation,AT1R [2],improves arterial wall architecture and reduces aortic dilatation
CC(C)NCC(O)COc1cccc2ccccc12 (stereo not shown) [propranolol],aortic dilatation and risk of dissection,[3],limits aortic dilatation and the risk of dissection
